From US20080058373A1, “Compositions and Methods for Treating or Preventing Glaucoma or Progression Thereof” (priority 2006, published 2008)
“And” between values parts separate entries of the source, which are not always exact repeats. Identical values can stand only once.

Assays:
[1] = test system: rabbit eye (anterior chamber paracentesis); assay: Pupillary diameter measurement, rabbit paracentesis model; type: in vivo; conditions: 0.1% topical
Experimental: Each rabbit was placed in a restraint device and tagged with the alphanumeric code. The formulations were instilled (50 μl) into the conjunctival sac of both eyes 180, 120, 90 and 30 min before the first paracentesis; then 15, 30, 90 min after the first paracentesis. To perform the first paracentesis the animals were anaesthetized by intravenous injection of 5 mg/kg Zoletil® (Virbac; 2.5 mg/kg tiletamine HCl and 2.5 mg/kg zolazepam HCl) and one drop of local anesthetic (Novesina®, Novartis) was administered to the eye. Anterior chamber paracentesis was performed with a 26 G needle attached to a tuberculin syringe; the needle was introduced into the anterior chamber through the cornea, taking care not to damage the tissues. Two hours after the first paracentesis, the animals were sacrificed with 0.4 ml Tanax® (Intervet International B.V.) and the second paracentesis was performed. About 100 μl of aqueous humor were removed at the second paracentesis. Aqueous humor was immediately split in four aliquots and stored at −80° C. until analysis. Then both eyes were enucleated and the iris-ciliary body was carefully excised, placed in polypropylene tubes, and stored at −80° C. until analysis.
The pupillary diameter of both eyes was measured with a Castroviejo caliper 180 min and 5 min before the first paracentesis and 5 min before the second paracentesis.

[2] = test system: New Zealand White rabbits; assay: Intraocular pressure (IOP) in rabbits, topical dosing four times daily; type: in vivo; conditions: 0.1% (Group A)
Experimental: Seventy-five rabbits underwent two weeks of IOP training to condition them for IOP measurement. IOP was determined for both eyes of each animal using a Medtronic Solan, Model 30 classic pneumatonometer. Proparacaine hydrochloride 0.5% (1 drop) was delivered to each eye prior to IOP measurement. A two-point diurnal curve was established: IOP was recorded on Monday, Wednesday, and Friday of each week, at 8 a.m. and 12 p.m., with a ±1 hour range for each of these times. The time of the measurements was recorded.
On Days 1-31, animals received daily topical doses of the appropriate test article into the right eye. Animals were dosed four times per day, with doses administered 2 hours apart. Doses were administered using a calibrated 50-μL pipette. The eyelids were held close for 10 seconds immediately following dosing. The time of each dose administration was recorded.
Intraocular pressure (“IOP”) was determined for both eyes of each animal on Days 3, 5, 10, 12, 16, 18, 22, 24, 26, 30, and 32. IOP was evaluated with a Medtronic Solan, Model 30 classic pneumatonometer. Proparacaine hydrochloride 0.5% (1 drop) was delivered to each eye prior to IOP measurement. IOP was measured on Monday, Wednesday, and Friday of each week. A two-point diurnal curve was established: IOP was recorded at 8 a.m. and 12 p.m. on Day 3, and at 8 a.m. and 2 p.m. on later days, with a ±1 hour range for each of these times. The time of the measurements was recorded.
Descriptive statistics were prepared for IOP data of each treatment group (left and right eyes separately) at each measurement interval. The statistics included the number of observations (“N”), mean, standard deviation (“STD”), and standard error (“SEM”). Statistical analyses were conducted on IOP results using Statistical Analysis Systems (SAS Institute, Inc., Cary, N.C., V8.0). Parameters were evaluated using analysis of variance/GLM Procedure followed by Tukey's Standardized Range Test (Tukey, 1985) for post hoc comparisons of group means. The level of significance was set at a probability of p<0.05 for all statistical procedures. Group IOP means were compared at each interval, with left and right eyes compared separately.

Q: `C[C@@H]1C[C@H]2[C@@H]3CCC4=CC(=O)C=C[C@]4(C)[C@@]3(F)[C@@H](O)C[C@]2(C)[C@@]1(O)C(=O)CO` [dexamethasone, reference compound] was tested. Which “Pupillary diameter T1: −180 min” value ([1]; 50 μl drops, −180 min (basal), single eyes, listed as Dex) did it give?
A: 6.0 mm and 7.0 mm and 5.5 mm and 6.5 mm

Q: What about the “Pupillary diameter T2: −5 min” value ([1]; 5 min before the first paracentesis, single eyes, listed as Dex) of the same compound?
A: 5.5 mm and 6.5 mm and 6.0 mm and 7.0 mm and 7.5 mm

Q: And the “Pupillary diameter T3: +115 min” value ([1]; 5 min before the second paracentesis, single eyes, listed as Dex)?
A: 5.5 mm and 6.0 mm and 4.5 mm and 5.0 mm and 6.5 mm

Q: And the “Pupillary diameter Mean Δ(T3 − T1)” value ([1]; group mean, n=8 eyes)?
A: −0.8 mm

Q: What about the “Intraocular Pressure in Untreated Left Eyes (A.M. Readings), MEAN” value (shortened to “Intraocular Pressure”) ([2]; Day 3) of the same compound?
A: 24.3 mmHg

Q: What about the “Intraocular Pressure” value ([2]; Day 5) of the same compound?
A: 24.3 mmHg

Q: What about the “Intraocular Pressure” value ([2]; Day 10) of the same compound?
A: 26.9 mmHg

Q: What about the “Intraocular Pressure” value ([2]; Day 12) of the same compound?
A: 26.2 mmHg

Q: And the “Intraocular Pressure” value ([2]; Day 16)?
A: 25.0 mmHg

Q: And the “Intraocular Pressure” value ([2]; Day 18)?
A: 24.2 mmHg

Q: What about the “Intraocular Pressure” value ([2]; Day 22) of the same compound?
A: 25.0 mmHg

Q: What about the “Intraocular Pressure” value ([2]; Day 24) of the same compound?
A: 23.6 mmHg

Q: What about the “Intraocular Pressure” value ([2]; Day 26) of the same compound?
A: 23.7 mmHg

Q: What about the “Intraocular Pressure” value ([2]; Day 30) of the same compound?
A: 24.0 mmHg

Q: What about the “Intraocular Pressure” value ([2]; Day 32) of the same compound?
A: 25.5 mmHg

Q: And the “Intraocular Pressure” value ([2]; Pre-Study)?
A: 24.4 mmHg
